17 compounds from patent US20240208968A1, “ALPHA V BETA 6 AND ALPHA V BETA 1 INTEGRIN INHIBITORS AND USES THEREOF” (DiCE Molecules SV, Inc., priority 2021, published 2024) can be followed below.

The target in experiment [1] is αvβ1 (Homo sapiens, UniProt P05556+P06756). The experiment in a line: Solid Phase Integrin αvβ1 Assay. Type of experiment: binding. The gist of the method:
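Wells coated with 1 µg/mL recombinant TGFb1-LAP and blocked with 2% BSA/TBST, 1 mM MnCl2; αvβ1 (added at 0.2 µg/mL) and compound incubated 90 min at room temperature. Bound integrin detected by streptavidin-HRP (20 min) and TMB after Mn-containing washes; IC50 by four-parameter logistic fit.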

Experiment [2] addresses αvβ6 (Homo sapiens, UniProt P06756+P18564). Nature of the experiment: Solid Phase Integrin αvβ6 Assay. In kind it is binding. The procedure, abridged:
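Plates coated with 1 μg/mL recombinant TGFb1-LAP; compounds and αvβ6 (0.2 μg/mL diluted stock) incubated 1 h at room temperature in 2% BSA/TBST with 1 mM MnCl2. Bound integrin detected with streptavidin-HRP and TMB; IC50 from four-parameter logistic fits.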

pIC50: −log10 of the molar value. Structures can show the parent of a compound that is named as a salt.

Sequence of αvβ1 (P06756 31-992 limits assumed): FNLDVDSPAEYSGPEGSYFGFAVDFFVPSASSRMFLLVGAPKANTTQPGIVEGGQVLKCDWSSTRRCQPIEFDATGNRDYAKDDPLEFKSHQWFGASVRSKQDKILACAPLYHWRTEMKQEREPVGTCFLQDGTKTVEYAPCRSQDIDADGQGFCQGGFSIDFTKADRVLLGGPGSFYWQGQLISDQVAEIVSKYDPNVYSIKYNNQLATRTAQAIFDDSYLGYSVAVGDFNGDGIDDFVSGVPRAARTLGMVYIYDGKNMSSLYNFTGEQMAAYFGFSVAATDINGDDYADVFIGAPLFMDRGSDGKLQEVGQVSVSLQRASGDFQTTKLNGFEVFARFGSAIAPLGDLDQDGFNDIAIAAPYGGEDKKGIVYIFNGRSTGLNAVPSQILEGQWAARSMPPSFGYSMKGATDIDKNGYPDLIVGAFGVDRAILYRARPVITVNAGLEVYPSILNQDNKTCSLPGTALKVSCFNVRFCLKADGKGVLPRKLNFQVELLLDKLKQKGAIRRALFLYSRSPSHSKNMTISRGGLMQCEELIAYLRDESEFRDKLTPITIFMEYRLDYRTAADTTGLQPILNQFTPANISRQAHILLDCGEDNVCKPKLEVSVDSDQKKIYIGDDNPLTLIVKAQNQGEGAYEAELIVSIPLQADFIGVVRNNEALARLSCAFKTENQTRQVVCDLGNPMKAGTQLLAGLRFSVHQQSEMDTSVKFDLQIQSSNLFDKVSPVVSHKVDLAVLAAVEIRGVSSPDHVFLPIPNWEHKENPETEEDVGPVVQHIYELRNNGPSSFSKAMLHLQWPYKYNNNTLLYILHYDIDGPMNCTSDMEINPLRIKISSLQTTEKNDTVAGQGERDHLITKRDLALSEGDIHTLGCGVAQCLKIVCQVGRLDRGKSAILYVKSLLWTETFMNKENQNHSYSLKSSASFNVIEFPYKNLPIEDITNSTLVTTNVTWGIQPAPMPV
Sequence of αvβ1 (P05556 21-728 limits assumed): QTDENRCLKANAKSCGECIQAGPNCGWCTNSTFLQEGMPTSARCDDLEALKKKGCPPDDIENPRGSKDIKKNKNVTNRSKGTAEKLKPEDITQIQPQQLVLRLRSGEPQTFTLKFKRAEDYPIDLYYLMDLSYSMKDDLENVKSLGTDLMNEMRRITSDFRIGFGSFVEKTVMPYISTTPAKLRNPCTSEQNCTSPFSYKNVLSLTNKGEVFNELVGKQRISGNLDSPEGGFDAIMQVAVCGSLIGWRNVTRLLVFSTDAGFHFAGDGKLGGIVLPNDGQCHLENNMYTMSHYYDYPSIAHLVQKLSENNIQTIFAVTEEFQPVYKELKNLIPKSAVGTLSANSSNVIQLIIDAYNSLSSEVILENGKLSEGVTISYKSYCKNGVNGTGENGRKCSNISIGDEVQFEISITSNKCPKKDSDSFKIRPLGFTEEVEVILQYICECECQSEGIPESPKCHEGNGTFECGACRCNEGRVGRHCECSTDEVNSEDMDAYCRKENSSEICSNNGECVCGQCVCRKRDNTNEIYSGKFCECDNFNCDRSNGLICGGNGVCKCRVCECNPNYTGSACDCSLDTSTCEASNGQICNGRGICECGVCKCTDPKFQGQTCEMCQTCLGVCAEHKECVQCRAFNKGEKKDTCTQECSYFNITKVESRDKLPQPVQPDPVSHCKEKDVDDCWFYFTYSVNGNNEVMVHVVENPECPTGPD
Sequence of αvβ6 (P06756 31-992 limits assumed): as the sequence (P06756 31-992 limits assumed) above
Sequence of αvβ6 (P18564 22-707 limits assumed): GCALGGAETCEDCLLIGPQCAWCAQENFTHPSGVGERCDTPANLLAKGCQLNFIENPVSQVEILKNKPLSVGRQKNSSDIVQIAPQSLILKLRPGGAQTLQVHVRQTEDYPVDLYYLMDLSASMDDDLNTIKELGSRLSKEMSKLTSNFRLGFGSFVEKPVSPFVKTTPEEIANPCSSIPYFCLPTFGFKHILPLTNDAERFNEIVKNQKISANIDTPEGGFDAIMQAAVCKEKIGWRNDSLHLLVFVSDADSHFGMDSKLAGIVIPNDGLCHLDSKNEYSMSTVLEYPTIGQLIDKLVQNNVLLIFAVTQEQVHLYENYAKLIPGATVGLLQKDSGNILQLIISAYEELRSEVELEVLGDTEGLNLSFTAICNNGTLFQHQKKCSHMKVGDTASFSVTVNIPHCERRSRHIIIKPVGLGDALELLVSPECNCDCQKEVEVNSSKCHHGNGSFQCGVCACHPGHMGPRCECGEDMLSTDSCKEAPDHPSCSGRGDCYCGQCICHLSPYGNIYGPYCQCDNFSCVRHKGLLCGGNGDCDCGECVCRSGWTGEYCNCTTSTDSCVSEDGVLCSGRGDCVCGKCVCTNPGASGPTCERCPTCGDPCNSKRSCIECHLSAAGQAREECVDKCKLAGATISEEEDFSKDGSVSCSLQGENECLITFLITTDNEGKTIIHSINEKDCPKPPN

What is called pIC50 is −log10 of the IC50, conventionally taken in molar units. Read a low pIC50 as a large IC50. With `CO[C@H]1CCN(C(=O)[C@@H]2CCCC[C@H]2C(=O)N[C@@H](CNC(=O)[C@@H]2CCCN(CCCc3ccc4c(n3)NCCC4)C2)C(=O)O)C1` [Compound 268, (S)-2-((1R,2R)-2-((S)-3-methoxypyrrolidine-1-carbonyl)cyclohexane-1-carboxamido)-3-((R)-1-(3-(5,6,7,8-tetrahydro-1,8-naphthyridin-2-yl)propyl)piperidine-3-carboxamido)propanoic acid], the negative logarithm of the IC50 (pIC50) in experiment [1] and in experiment [2] was above 7.00 each time.
On to `CC1(CN[C@@H](CNC(=O)[C@@H]2CCCN(CCCc3ccc4c(n3)NCCC4)C2)C(=O)O)CCCCC1` [Compound 269, (S)-2-(((1-methylcyclohexyl)methyl)amino)-3-((R)-1-(3-(5,6,7,8-tetrahydro-1,8-naphthyridin-2-yl)propyl)piperidine-3-carboxamido)propanoic acid], for which the figures for the pIC50 in experiment [1] and in experiment [2] were below 6.00 and 6.00 to 7.00, respectively.
For `O=C(NC[C@H](NC(=O)C12CCC(CC1)CC2)C(=O)O)[C@@H]1CCCN(CCCc2ccc3c(n2)NCCC3)C1` [Compound 270, (S)-2-(bicyclo[2.2.2]octane-1-carboxamido)-3-((R)-1-(3-(5,6,7,8-tetrahydro-1,8-naphthyridin-2-yl)propyl)piperidine-3-carboxamido)propanoic acid], the negative logarithm of the IC50 (pIC50) in experiment [1] and in experiment [2] was above 7.00 in each case.
Consider `O=C(NC[C@H](Nc1ncnc2ccccc12)C(=O)O)[C@@H]1CCCN(CCCc2ccc3c(n2)NCCC3)C1` [Compound 271, (S)-2-(quinazolin-4-ylamino)-3-((R)-1-(3-(5,6,7,8-tetrahydro-1,8-naphthyridin-2-yl)propyl)piperidine-3-carboxamido)propanoic acid], for which the pIC50 in experiment [1] and in experiment [2] was above 7.00 throughout.
For the compound `O=C(NC[C@H](NS(=O)(=O)c1ccccc1)C(=O)O)[C@@H]1CCCN(CCCc2ccc3c(n2)NCCC3)C1` [Compound 272, (S)-2-(phenylsulfonamido)-3-((R)-1-(3-(5,6,7,8-tetrahydro-1,8-naphthyridin-2-yl)propyl)piperidine-3-carboxamido)propanoic acid], the pIC50 in experiment [1] and in experiment [2] was above 7.00 in each case.
As for `O=C(NC[C@H](Nc1ccnc2ccccc12)C(=O)O)[C@@H]1CCCN(CCCc2ccc3c(n2)NCCC3)C1` [Compound 273, (S)-2-(quinolin-4-ylamino)-3-((R)-1-(3-(5,6,7,8-tetrahydro-1,8-naphthyridin-2-yl)propyl)piperidine-3-carboxamido)propanoic acid], the pIC50 in experiment [1] and in experiment [2] was above 7.00 each time.
Regarding `O=C(NC[C@H](NS(=O)(=O)C1CCCCC1)C(=O)O)[C@@H]1CCCN(CCCc2ccc3c(n2)NCCC3)C1` [Compound 274, (S)-2-(cyclohexanesulfonamido)-3-((R)-1-(3-(5,6,7,8-tetrahydro-1,8-naphthyridin-2-yl)propyl)piperidine-3-carboxamido)propanoic acid hydrochloride], the pIC50 in experiment [1] and in experiment [2] was above 7.00 in each case.
`O=C(NC[C@H](NS(=O)(=O)c1ccc2c(c1)CCC2)C(=O)O)[C@@H]1CCCN(CCCc2ccc3c(n2)NCCC3)C1` [Compound 275, (2S)-2-(indan-5-ylsulfonylamino)-3-[[(3R)-1-[3-(5,6,7,8-tetrahydro-1,8-naphthyridin-2-yl)propyl]piperidine-3-carbonyl]amino]propanoic acid]: the results for the pIC50 in experiment [1] and in experiment [2] were 6.00 to 7.00 and above 7.00, respectively.
Regarding `O=C(NC[C@H](Nc1ncnc2ccsc12)C(=O)O)[C@@H]1CCCN(CCCc2ccc3c(n2)NCCC3)C1` [Compound 276, (2S)-3-[[(3R)-1-[3-(5,6,7,8-tetrahydro-1,8-naphthyridin-2-yl)propyl]piperidine-3-carbonyl]amino]-2-(thieno[3,2-d]pyrimidin-4-ylamino)propanoic acid], the negative-log IC50 (pIC50) in experiment [1] and in experiment [2] was above 7.00 throughout.
Turning to `Cc1csc2c(N[C@@H](CNC(=O)[C@@H]3CCCN(CCCc4ccc5c(n4)NCCC5)C3)C(=O)O)ncnc12` [Compound 277, (2S)-2-[(7-methylthieno[3,2-d]pyrimidin-4-yl)amino]-3-[[(3R)-1-[3-(5,6,7,8-tetrahydro-1,8-naphthyridin-2-yl)propyl]piperidine-3-carbonyl]amino]propanoic acid], the pIC50 in experiment [1] and in experiment [2] was above 7.00 throughout.
Regarding `O=C(NC[C@H](Nc1ncnc2cc(F)c(F)cc12)C(=O)O)[C@@H]1CCCN(CCCc2ccc3c(n2)NCCC3)C1` [Compound 278, (2S)-2-[(6,7-difluoroquinazolin-4-yl)amino]-3-[[(3R)-1-[3-(5,6,7,8-tetrahydro-1,8-naphthyridin-2-yl)propyl]piperidine-3-carbonyl]amino]propanoic acid], the pIC50 in experiment [1] and in experiment [2] was above 7.00 in each case.
On to `O=C(NC[C@H](Nc1ncnc2sccc12)C(=O)O)[C@@H]1CCCN(CCCc2ccc3c(n2)NCCC3)C1` [Compound 279, (S)-3-((R)-1-(3-(5,6,7,8-tetrahydro-1,8-naphthyridin-2-yl)propyl)piperidine-3-carboxamido)-2-(thieno[2,3-d]pyrimidin-4-ylamino)propanoic acid], for which the pIC50 in experiment [1] and in experiment [2] was above 7.00 in each case.
Regarding `Cc1csc2ncnc(N[C@@H](CNC(=O)[C@@H]3CCCN(CCCc4ccc5c(n4)NCCC5)C3)C(=O)O)c12` [Compound 280, (S)-2-((5-methylthieno[2,3-d]pyrimidin-4-yl)amino)-3-((R)-1-(3-(5,6,7,8-tetrahydro-1,8-naphthyridin-2-yl)propyl)piperidine-3-carboxamido)propanoic acid], the pIC50 in experiment [1] and in experiment [2] was above 7.00 throughout.
With `O=C(NC[C@H](Nc1nc2ccccc2s1)C(=O)O)[C@@H]1CCCN(CCCc2ccc3c(n2)NCCC3)C1` [Compound 281, (2S)-2-(1,3-benzothiazol-2-ylamino)-3-[[(3R)-1-[3-(5,6,7,8-tetrahydro-1,8-naphthyridin-2-yl)propyl]piperidine-3-carbonyl]amino]propanoic acid], the pIC50 in experiment [1] and in experiment [2] was above 7.00 in each case.
With `O=C(NC[C@H](Nc1ncnc2cc(C(F)(F)F)ccc12)C(=O)O)[C@@H]1CCCN(CCCc2ccc3c(n2)NCCC3)C1` [Compound 282, (S)-3-((R)-1-(3-(5,6,7,8-tetrahydro-1,8-naphthyridin-2-yl)propyl)piperidine-3-carboxamido)-2-((7-(trifluoromethyl)quinazolin-4-yl)amino)propanoic acid hydrochloride], the negative logarithm of the IC50 (pIC50) in experiment [1] and in experiment [2] was above 7.00 each time.
Turning to `O=C(NC[C@H](Nc1cc(C(F)(F)F)ncn1)C(=O)O)[C@@H]1CCCN(CCCc2ccc3c(n2)NCCC3)C1` [Compound 283, (2S)-3-[[(3R)-1-[3-(5,6,7,8-tetrahydro-1,8-naphthyridin-2-yl)propyl]piperidine-3-carbonyl]amino]-2-[[6-(trifluoromethyl)pyrimidin-4-yl]amino]propanoic acid], the pIC50 in experiment [1] and in experiment [2] was above 7.00 each time.
With `O=C(NC1CCCCC1)N[C@@H](CNC(=O)[C@@H]1CCCN(CCCc2ccc3c(n2)NCCC3)C1)C(=O)O` [Compound 284, (S)-2-(3-cyclohexylureido)-3-((R)-1-(3-(5,6,7,8-tetrahydro-1,8-naphthyridin-2-yl)propyl)piperidine-3-carboxamido)propanoic acid], the pIC50 in experiment [1] and in experiment [2] was above 7.00 throughout.
